Laboratory results published in ChEMBL document CHEMBL1143964, “Novel pyrazolo[1,5-a]pyrimidines as c-Src kinase inhibitors that reduce IKr channel blockade” (Bioorg Med Chem, 2008).
Blank lines part the entries; values can stand above or below the compound they belong to.

Assays:
[1] = target: T1, IKr channel (Oryctolagus cuniculus, UniProt Q28705); assay: Inhibition of Ikr channel in rabbit ventricular myocytes at 10 uM; type: cell-based, Ventricular myocyte
[2] = target: T2, Proto-oncogene tyrosine-protein kinase Src (Homo sapiens, UniProt P12931); assay: Inhibition of human cSrc
T2 sequence (P12931 2-536 limits assumed): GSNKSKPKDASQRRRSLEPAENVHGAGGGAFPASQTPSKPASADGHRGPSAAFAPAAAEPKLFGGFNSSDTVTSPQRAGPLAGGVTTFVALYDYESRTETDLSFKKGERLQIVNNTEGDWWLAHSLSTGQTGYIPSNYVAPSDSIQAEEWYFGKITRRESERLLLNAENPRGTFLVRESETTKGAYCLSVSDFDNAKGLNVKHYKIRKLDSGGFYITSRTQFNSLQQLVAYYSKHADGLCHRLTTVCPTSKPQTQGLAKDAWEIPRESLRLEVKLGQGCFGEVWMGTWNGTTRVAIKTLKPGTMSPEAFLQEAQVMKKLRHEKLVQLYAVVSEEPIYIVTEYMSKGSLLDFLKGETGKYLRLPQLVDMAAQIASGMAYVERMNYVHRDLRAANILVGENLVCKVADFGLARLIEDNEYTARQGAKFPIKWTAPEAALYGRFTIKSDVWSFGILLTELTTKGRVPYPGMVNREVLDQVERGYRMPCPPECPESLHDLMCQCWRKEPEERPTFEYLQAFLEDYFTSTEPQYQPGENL

[3] = target: T1, IKr channel; assay: Inhibition of Ikr channel in rabbit ventricular myocytes at 30 uM
[4] = target: T2, Proto-oncogene tyrosine-protein kinase Src; assay: Inhibition of human cSrc in COS7 cells by ELISA; type: cell-based, COS-7
[5] = Drug level in Sprague-Dawley rat plasma at 3 mg/kg, iv after 1 hr; type: ADME, organism-based; design: dose 3 mg/kg, route intravenous
[6] = Drug level in Sprague-Dawley rat brain at 3 mg/kg, iv after 1 hr; type: ADME, organism-based; design: dose 3 mg/kg, route intravenous; conditions: read-out: Drug uptake
[7] = Ratio of drug level in brain to plasma in Sprague-Dawley rat at 3 mg/kg, iv after 1 hr; type: ADME, organism-based; design: dose 3 mg/kg, route intravenous; conditions: read-out: BPR
[8] = target: T3, Tyrosine-protein kinase ZAP-70 (Homo sapiens, UniProt P43403); assay: Inhibition of ZAP
T3 sequence (P43403 whole entry): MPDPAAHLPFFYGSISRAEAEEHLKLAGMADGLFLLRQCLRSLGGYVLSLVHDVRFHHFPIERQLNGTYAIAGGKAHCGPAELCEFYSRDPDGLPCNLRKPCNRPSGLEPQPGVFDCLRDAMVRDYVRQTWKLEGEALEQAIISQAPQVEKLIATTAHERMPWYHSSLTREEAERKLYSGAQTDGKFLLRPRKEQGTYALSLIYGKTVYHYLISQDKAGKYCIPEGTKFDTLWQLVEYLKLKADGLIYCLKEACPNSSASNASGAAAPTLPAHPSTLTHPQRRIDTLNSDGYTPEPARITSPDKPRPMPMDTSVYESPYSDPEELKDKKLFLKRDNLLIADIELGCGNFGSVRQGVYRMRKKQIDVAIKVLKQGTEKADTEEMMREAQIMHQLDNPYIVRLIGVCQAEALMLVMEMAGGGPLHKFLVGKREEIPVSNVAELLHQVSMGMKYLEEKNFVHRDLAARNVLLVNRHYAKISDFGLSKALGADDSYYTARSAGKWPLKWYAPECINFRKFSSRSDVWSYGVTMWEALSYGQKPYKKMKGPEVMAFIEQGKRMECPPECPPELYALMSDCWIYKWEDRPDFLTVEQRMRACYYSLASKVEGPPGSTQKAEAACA

[9] = target: Tyrosine-protein kinase Lck (Homo sapiens, UniProt P06239)
Sequence of Tyrosine-protein kinase Lck (P06239 whole entry): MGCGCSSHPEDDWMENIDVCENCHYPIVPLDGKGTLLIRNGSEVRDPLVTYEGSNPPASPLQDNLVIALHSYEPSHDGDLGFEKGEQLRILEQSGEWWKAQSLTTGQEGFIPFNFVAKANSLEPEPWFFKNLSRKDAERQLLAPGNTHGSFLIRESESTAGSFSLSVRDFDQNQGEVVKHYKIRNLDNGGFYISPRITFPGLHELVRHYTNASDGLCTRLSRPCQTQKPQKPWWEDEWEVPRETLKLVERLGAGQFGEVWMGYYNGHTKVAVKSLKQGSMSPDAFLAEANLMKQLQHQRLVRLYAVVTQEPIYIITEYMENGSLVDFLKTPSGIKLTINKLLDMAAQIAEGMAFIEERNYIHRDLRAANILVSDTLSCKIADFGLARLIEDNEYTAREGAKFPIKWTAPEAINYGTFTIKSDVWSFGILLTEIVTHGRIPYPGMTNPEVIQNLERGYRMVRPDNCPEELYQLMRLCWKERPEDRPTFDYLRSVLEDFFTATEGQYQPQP

[10] = target: Tyrosine-protein kinase SYK (Homo sapiens, UniProt P43405); assay: Inhibition of Syk
[11] = AUC (0 to infinity) in Sprague-Dawley rat middle cerebral artery occlusion model at 3 mg/kg, iv; type: ADME, organism-based; design: time infinity, dose 3 mg/kg, route intravenous; conditions: in vivo
[12] = Clearance in Sprague-Dawley rat middle cerebral artery occlusion model at 3 mg/kg, iv; type: ADME, organism-based; design: dose 3 mg/kg, route intravenous; conditions: in vivo
[13] = target: Epidermal growth factor receptor (Homo sapiens, UniProt P00533)
Sequence of Epidermal growth factor receptor (P00533 whole entry): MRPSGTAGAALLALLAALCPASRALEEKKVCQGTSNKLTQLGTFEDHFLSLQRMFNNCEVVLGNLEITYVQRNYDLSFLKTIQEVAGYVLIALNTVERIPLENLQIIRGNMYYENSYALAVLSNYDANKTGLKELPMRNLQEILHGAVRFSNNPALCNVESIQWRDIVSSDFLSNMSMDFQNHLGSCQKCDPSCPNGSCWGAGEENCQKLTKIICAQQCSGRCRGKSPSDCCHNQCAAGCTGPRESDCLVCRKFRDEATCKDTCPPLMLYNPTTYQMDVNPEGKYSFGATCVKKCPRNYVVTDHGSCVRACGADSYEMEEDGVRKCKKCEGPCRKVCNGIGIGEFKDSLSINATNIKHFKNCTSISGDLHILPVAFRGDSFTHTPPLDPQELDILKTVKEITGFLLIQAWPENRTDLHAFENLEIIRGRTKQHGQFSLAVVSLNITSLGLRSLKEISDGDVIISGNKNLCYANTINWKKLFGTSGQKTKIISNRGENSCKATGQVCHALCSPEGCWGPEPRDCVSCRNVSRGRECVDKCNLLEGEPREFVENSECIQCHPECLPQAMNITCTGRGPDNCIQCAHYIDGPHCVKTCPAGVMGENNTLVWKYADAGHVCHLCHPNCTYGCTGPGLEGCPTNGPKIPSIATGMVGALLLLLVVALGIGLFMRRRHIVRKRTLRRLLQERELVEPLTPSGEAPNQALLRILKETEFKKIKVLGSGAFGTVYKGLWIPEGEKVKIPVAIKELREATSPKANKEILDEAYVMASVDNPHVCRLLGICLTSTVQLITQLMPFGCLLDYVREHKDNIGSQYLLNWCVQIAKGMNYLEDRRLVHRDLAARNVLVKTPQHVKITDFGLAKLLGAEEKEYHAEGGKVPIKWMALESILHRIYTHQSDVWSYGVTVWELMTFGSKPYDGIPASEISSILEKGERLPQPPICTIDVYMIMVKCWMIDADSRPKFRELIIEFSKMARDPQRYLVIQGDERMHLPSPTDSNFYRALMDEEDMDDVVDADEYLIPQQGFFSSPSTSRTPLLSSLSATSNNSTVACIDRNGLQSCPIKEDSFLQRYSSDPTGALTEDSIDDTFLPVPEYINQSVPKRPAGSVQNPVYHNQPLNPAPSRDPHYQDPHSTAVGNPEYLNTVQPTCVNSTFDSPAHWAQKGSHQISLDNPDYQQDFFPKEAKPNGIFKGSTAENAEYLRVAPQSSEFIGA

[14] = Volume of distribution at steady state in Sprague-Dawley rat middle cerebral artery occlusion model at 3 mg/kg, iv; type: ADME, organism-based; design: dose 3 mg/kg, route intravenous; conditions: in vivo, read-out: Vdss
[15] = target: Vascular endothelial growth factor receptor 2 (Homo sapiens, UniProt P35968); assay: Inhibition of KDR
Sequence of Vascular endothelial growth factor receptor 2 (P35968 whole entry): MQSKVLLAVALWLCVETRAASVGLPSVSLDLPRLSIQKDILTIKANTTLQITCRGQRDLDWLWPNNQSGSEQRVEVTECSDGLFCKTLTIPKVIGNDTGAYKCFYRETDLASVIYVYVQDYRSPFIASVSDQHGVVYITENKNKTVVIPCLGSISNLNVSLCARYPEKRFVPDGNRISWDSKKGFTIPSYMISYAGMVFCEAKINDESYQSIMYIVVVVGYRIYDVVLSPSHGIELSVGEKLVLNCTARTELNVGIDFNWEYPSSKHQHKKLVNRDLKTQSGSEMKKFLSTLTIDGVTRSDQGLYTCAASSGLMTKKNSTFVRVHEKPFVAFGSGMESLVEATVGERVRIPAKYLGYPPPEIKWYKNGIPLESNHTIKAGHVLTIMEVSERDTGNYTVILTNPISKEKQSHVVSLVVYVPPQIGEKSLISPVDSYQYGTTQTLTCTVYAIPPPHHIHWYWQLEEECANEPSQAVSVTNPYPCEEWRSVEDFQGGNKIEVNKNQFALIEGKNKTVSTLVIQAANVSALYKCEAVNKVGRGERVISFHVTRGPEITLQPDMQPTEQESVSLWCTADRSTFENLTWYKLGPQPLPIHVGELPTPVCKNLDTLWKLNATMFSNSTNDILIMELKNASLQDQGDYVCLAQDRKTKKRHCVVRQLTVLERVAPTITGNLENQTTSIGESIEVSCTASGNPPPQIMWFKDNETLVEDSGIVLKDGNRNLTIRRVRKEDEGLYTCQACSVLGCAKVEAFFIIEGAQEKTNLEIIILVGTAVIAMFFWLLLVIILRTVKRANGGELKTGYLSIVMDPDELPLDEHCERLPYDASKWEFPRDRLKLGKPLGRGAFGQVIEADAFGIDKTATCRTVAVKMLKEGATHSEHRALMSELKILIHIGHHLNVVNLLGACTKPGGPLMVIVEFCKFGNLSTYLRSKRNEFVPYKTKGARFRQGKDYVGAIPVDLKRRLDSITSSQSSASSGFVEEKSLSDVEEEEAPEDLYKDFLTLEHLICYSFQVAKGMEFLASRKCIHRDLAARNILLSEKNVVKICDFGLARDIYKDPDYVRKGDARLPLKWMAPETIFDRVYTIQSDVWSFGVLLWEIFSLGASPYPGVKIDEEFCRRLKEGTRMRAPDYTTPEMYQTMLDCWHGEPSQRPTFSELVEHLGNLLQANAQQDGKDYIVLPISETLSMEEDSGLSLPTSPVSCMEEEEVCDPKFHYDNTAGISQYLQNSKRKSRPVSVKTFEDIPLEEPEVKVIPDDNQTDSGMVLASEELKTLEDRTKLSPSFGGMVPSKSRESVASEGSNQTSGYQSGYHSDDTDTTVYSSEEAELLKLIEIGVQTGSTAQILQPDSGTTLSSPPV

[16] = target: Protein kinase C beta type (Homo sapiens, UniProt P05771); assay: Inhibition of PKCbeta
Sequence of Protein kinase C beta type (P05771 whole entry): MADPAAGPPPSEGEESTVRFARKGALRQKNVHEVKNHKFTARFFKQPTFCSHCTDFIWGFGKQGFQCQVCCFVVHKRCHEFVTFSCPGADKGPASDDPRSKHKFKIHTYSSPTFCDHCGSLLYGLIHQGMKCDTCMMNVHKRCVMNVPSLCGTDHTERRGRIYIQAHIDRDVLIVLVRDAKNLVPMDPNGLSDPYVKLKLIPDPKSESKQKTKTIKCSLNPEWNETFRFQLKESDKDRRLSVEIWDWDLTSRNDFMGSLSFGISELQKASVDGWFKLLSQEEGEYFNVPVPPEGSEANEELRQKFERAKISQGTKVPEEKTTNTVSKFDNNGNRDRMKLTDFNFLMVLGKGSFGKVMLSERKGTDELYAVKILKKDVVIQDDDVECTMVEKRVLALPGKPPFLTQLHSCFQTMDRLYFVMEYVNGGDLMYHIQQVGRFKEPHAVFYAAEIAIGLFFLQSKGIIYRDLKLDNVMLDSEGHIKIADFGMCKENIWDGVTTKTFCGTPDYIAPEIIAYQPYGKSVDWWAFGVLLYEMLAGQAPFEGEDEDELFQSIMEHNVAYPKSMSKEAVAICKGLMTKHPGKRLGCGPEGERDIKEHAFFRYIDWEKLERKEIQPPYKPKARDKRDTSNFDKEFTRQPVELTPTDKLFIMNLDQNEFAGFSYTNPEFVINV

[17] = Half life in Sprague-Dawley rat middle cerebral artery occlusion model at 3 mg/kg, iv; type: ADME, organism-based; design: dose 3 mg/kg, route intravenous; conditions: in vivo

T1 sequence (Q28705 whole entry): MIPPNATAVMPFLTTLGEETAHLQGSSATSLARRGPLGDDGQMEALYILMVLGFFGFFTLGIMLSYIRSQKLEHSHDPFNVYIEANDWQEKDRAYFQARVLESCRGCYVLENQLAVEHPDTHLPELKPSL

IC50 [2]: 408 nM
SMILES: COc1cc(Nc2nn3c(NC[C@@H](C)N)cc(C)nc3c2C(N)=O)cc(OC)c1
inhibition at 10 µM [1]: 47.9%

IC50 [2]: 68 nM
SMILES: COc1cc(Nc2nn3c(N[C@@H](CO)C(C)C)cc(-c4ccccc4)nc3c2C(N)=O)cc(OC)c1
inhibition at 30 µM [3]: 12.4%

IC50 [2]: 9200 nM
SMILES: COc1cc(Nc2nn3c(NC[C@H](C)O)cc(C)nc3c2C(N)=O)cc(OC)c1

IC50 [2]: 432 nM
SMILES: COc1cc(Nc2nn3c(N[C@@H](CO)C(C)C)cc(C)nc3c2C(N)=O)cc(OC)c1

IC50 [4]: 900 nM
IC50 [2]: 175 nM
SMILES: COc1cc(Nc2nn3c(NCC(C)(C)N)cc(C)nc3c2C(N)=O)cc(OC)c1
inhibition at 10 µM [1]: 90.7%

concentration at 1 h [5]: 80 ng/mL
concentration at 1 h [6]: 89 ng/g
Kp at 1 h [7]: 1.1
IC50 [4]: 500 nM
IC50 [2]: 5 nM
SMILES: COc1cc(Nc2nn3c(N[C@H](CO)Cc4c[nH]c5ccccc45)cc(C4CC4)nc3c2C(N)=O)cc(OC)c1
inhibition at 30 µM [3]: 5.4%

IC50 [2]: 12 nM
SMILES: COc1cc(Nc2nn3c(N[C@@H](CO)Cc4ccccc4)cc(C4CC4)nc3c2C(N)=O)cc(OC)c1

SMILES: COc1cc(Nc2nn3c(N[C@H](CO)Cc4ccccc4)cc(C4CC4)nc3c2C(N)=O)cc(OC)c1
concentration at 1 h [5]: 273 ng/mL
IC50 [8]: > 10000 nM
concentration at 1 h [6]: 256 ng/g
inhibition at 30 µM [3]: 23.4%
IC50 [9]: 7 nM
Kp at 1 h [7]: 0.9
IC50 [10]: > 10000 nM
AUC(0-inf) [11]: 1990 ng·h/mL
clearance [12]: 25 mL/min/kg
IC50 [13]: 2400 nM
IC50 [4]: 100 nM
Vd [14]: 0.53 L/kg
IC50 [15]: > 10000 nM
IC50 [16]: > 10000 nM
half-life [17]: 22 min
IC50 [2]: 3 nM

concentration at 1 h [5]: 81 ng/mL
IC50 [4]: 100 nM
IC50 [2]: 5 nM
SMILES: COc1cc(Nc2nn3c(N[C@H](CO)Cc4cccnc4)cc(C4CC4)nc3c2C(N)=O)cc(OC)c1

IC50 [2]: 9 nM
SMILES: COc1cc(Nc2nn3c(N4CCC[C@@H]4CO)cc(C4CC4)nc3c2C(N)=O)cc(OC)c1
inhibition at 30 µM [3]: 14.2%

IC50 [2]: 25 nM
SMILES: COc1cc(Nc2nn3c(N4CCC[C@H]4CO)cc(C4CC4)nc3c2C(N)=O)cc(OC)c1

IC50 [2]: 41 nM
SMILES: COc1cc(Nc2nn3c(N[C@@H](CO)C(C)C)cc(C(C)C)nc3c2C(N)=O)cc(OC)c1
inhibition at 30 µM [3]: 14.6%

concentration at 1 h [5]: 346 ng/mL
concentration at 1 h [6]: 126 ng/g
Kp at 1 h [7]: 0.4
IC50 [4]: 100 nM
IC50 [2]: 8 nM
SMILES: COc1cc(Nc2nn3c(N[C@@H](CO)C(C)C)cc(C4CC4)nc3c2C(N)=O)cc(OC)c1

IC50 [2]: 1210 nM
SMILES: COc1cc(Nc2nn3c(N[C@H](CO)C(C)C)cc(C)nc3c2C(N)=O)cc(OC)c1

IC50 [2]: 2990 nM
SMILES: COc1cc(Nc2nn3c(NC[C@H](C)N)cc(C)nc3c2C(N)=O)cc(OC)c1
inhibition at 10 µM [1]: 99.1%

IC50 [2]: 3480 nM
SMILES: COc1cc(Nc2nn3c(N[C@@H](C)CO)cc(C)nc3c2C(N)=O)cc(OC)c1

IC50 [2]: 6690 nM
SMILES: COc1cc(Nc2nn3c(NC[C@@H](C)O)cc(C)nc3c2C(N)=O)cc(OC)c1
